We go through 36 compounds from US20240132463A1, “SUBSTITUTED N-(2-(2,6-DIOXOPIPERIDIN-3-YL)-1,3-DIOXOISOINDOLIN-5-YL)ARYLSULFONAMIDE ANALOGS AS MODULATORS OF CEREBLON PROTEIN” (ST. JUDE CHILDREN'S RESEARCH HOSPITAL, INC., priority 2020, published 2024).

In general, IC50 refers to the concentration that inhibits the measured activity by half.

6×His-CRBN-DDB1 protein, sequence (Q96SW2 whole entry): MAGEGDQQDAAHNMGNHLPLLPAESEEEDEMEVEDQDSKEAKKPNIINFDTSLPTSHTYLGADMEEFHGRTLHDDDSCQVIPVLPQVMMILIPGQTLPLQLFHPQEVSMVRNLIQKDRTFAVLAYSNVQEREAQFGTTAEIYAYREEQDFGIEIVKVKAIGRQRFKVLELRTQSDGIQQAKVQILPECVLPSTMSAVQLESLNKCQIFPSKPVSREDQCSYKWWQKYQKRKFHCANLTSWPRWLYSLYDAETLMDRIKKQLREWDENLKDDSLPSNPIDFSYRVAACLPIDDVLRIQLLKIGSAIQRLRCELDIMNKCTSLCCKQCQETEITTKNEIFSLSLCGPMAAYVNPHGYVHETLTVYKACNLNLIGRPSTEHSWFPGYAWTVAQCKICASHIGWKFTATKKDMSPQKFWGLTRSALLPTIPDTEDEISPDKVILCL
6×His-CRBN-DDB1 protein, sequence (Q16531 whole entry partner): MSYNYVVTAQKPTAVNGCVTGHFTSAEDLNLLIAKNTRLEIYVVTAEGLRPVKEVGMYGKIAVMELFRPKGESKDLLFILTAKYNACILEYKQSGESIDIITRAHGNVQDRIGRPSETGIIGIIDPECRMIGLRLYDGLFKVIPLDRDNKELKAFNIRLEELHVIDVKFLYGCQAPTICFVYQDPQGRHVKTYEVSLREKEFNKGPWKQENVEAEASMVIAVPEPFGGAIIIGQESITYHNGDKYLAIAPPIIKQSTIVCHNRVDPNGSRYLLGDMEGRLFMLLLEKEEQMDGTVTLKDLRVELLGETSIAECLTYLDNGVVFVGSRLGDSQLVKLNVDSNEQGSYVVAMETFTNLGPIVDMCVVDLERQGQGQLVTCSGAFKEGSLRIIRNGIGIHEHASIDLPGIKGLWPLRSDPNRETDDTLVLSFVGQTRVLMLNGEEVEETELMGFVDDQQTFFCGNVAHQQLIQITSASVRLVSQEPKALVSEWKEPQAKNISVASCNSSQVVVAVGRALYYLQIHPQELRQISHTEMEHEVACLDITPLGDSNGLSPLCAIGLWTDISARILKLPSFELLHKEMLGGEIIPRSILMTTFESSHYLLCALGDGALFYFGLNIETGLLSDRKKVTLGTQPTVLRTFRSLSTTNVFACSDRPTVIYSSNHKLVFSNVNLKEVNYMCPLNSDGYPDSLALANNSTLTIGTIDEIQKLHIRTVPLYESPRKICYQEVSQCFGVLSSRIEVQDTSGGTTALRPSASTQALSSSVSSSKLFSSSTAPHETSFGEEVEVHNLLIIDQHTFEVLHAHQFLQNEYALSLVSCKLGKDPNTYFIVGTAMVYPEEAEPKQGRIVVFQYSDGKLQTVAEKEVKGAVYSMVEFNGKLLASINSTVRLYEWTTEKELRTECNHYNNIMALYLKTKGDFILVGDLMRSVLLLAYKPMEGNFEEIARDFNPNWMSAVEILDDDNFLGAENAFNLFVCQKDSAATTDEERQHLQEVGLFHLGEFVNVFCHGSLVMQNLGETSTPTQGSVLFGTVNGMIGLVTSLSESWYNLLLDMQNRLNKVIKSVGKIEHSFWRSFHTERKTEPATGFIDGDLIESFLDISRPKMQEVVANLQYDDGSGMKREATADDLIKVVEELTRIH

In the assay the target is 6×His-CRBN-DDB1 protein (Homo sapiens (Human), UniProt Q96SW2). Kind of assay: CRBN fluorescence polarization assay. In kind it is binding. The note with it: cereblon binding, class symbols; read-out: CRBN FP IC50. As for the experimental part:
6×His-CRBN-DDB1 protein (200 nM) and Cy5-O-Len probe (30 nM) were combined in 20 mM HEPES pH 7, 150 mM NaCl, 0.005% Tween-20 assay buffer. […] The plates were incubated in the dark for 1 hour at room temperature and then read on an Envision plate reader (PerkinElmer, Massachusetts, USA).
(In fluorescence polarisation assays a small probe gives low polarisation when free and higher when bound to something large.)
As for `N#Cc1ccc(S(=O)(=O)Nc2ccc3c(c2)C(=O)N(C2CCC(=O)NC2=O)C3=O)cc1` (stereo not drawn) [Compound 64, 4-cyano-N-(2-(2,6-dioxopiperidin-3-yl)-1,3-dioxoisoindolin-5-yl)benzenesulfonamide], the IC50 was less than 1 µM. As to `Cc1ccccc1S(=O)(=O)Nc1ccc2c(c1)C(=O)N(C1CCC(=O)NC1=O)C2` (stereo not drawn) [Compound 35, N-(2-(2,6-dioxopiperidin-3-yl)-3-oxoisoindolin-5-yl)-2-methylbenzenesulfonamide], the IC50 was less than 1 µM. `CCOc1ccccc1S(=O)(=O)Nc1ccc2c(c1)C(=O)N(C1CCC(=O)NC1=O)C2=O` (stereo not drawn) [Compound 79, N-(2-(2,6-dioxopiperidin-3-yl)-1,3-dioxoisoindolin-5-yl)-2-ethoxybenzenesulfonamide]: the IC50 fell in the range of 1 to 10 µM. For `O=C1CCC(N2Cc3ccc(NS(=O)(=O)c4ccccc4OC(F)(F)F)cc3C2=O)C(=O)N1` (stereo not drawn) [Compound 37, N-(2-(2,6-dioxopiperidin-3-yl)-3-oxoisoindolin-5-yl)-2-(trifluoromethoxy)benzenesulfonamide], the 50% inhibitory concentration (IC50) was less than 1 µM. The result for `O=C1CCC(N2Cc3cc(NS(=O)(=O)c4cccc(OC(F)(F)F)c4)ccc3C2=O)C(=O)N1` (stereo not drawn) [Compound 43, N-(2-(2,6-dioxopiperidin-3-yl)-1-oxoisoindolin-5-yl)-3-(trifluoromethoxy)benzenesulfonamide] reads less than 1 µM; that for `O=C1CCC(N2C(=O)c3ccc(NS(=O)(=O)c4ccc(-c5ccccc5)cc4)cc3C2=O)C(=O)N1` (stereo not drawn) [Compound 62, N-(2-(2,6-dioxopiperidin-3-yl)-1,3-dioxoisoindolin-5-yl)(1,1′-biphenyl]-4-sulfonamide], less than 1 µM.

With `O=C1CCC(N2Cc3cc(NS(=O)(=O)c4ccc(-c5ccccc5)cc4)ccc3C2=O)C(=O)N1` (stereo not drawn) [Compound 51, N-(2-(2,6-dioxopiperidin-3-yl)-1-oxoisoindolin-5-yl)-[1,1′-bipheny]-4-sulfonamide], the IC50 was less than 1 µM. The result for `Cc1ccc(S(=O)(=O)Nc2ccc3c(c2)C(=O)N(C2CCC(=O)NC2=O)C3)cc1` (stereo not drawn) [Compound 25, N-(2-(2,6-dioxopiperidin-3-yl)-3-oxoisoindolin-5-yl)-4-methylbenzenesulfonamide] reads less than 1 µM; that for `Cc1ccc(F)c(S(=O)(=O)Nc2ccc3c(c2)C(=O)N(C2CCC(=O)NC2=O)C3)c1` (stereo not drawn) [Compound 34, N-(2-(2,6-dioxopiperidin-3-yl)-3-oxoisoindolin-5-yl)-2-fluoro-5-methylbenzenesulfonamide], less than 1 µM; that for `O=C1CCC(N2Cc3cc(NS(=O)(=O)c4ccc(F)c(Cl)c4)ccc3C2=O)C(=O)N1` (stereo not drawn) [Compound 49, 3-chloro-N-(2-(2,6-dioxopiperidin-3-yl)-1-oxoisoindolin-5-yl)-4-fluorobenzenesulfonamide], less than 1 µM. `Cc1cccc(S(=O)(=O)Nc2ccc3c(c2)CN(C2CCC(=O)NC2=O)C3=O)c1` (stereo not drawn) [Compound 45, N-(2-(2,6-dioxopiperidin-3-yl)-1-oxoisoindolin-5-yl)-3-methylbenzenesulfonamide]: the IC50 is less than 1 µM. In the case of `CC(C)c1ccc(S(=O)(=O)Nc2ccc3c(c2)C(=O)N(C2CCC(=O)NC2=O)C3)cc1` (stereo not drawn) [Compound 30, N-(2-(2,6-dioxopiperidin-3-yl)-3-oxoisoindolin-5-yl)-4-isopropylbenzenesulfonamide] it was less than 1 µM; in that of `O=C1CCC(N2Cc3cc(NS(=O)(=O)c4ccccc4OC(F)(F)F)ccc3C2=O)C(=O)N1` (stereo not drawn) [Compound 56, N-(2-(2,6-dioxopiperidin-3-yl)-1-oxoisoindolin-5-yl)-2-(trifluoromethoxy)benzenesulfonamide], less than 1 µM. The result for `O=C1CCC(N2C(=O)c3ccc(NS(=O)(=O)c4cc(F)c(Cl)cc4F)cc3C2=O)C(=O)N1` (stereo not drawn) [Compound 66, 4-chloro-N-(2-(2,6-dioxopiperidin-3-yl)-1,3-dioxoisoindolin-5-yl)-2,5-difluorobenzenesulfonamide] reads less than 1 µM; that for `O=C1CCC(N2Cc3ccc(NS(=O)(=O)c4cccc(C(F)(F)F)c4)cc3C2=O)C(=O)N1` (stereo not drawn) [Compound 32, N-(2-(2,6-dioxopiperidin-3-yl)-3-oxoisoindolin-5-yl)-3-(trifluoromethyl)benzenesulfonamide], less than 1 µM; that for `COc1ccc(S(=O)(=O)Nc2ccc3c(c2)C(=O)N(C2CCC(=O)NC2=O)C3=O)cc1` (stereo not drawn) [Compound 14, N-(2-(2,6-dioxopiperidin-3-yl)-1,3-dioxoisoindolin-5-yl)-4-methoxybenzenesulfonamide], less than 1 µM.

As to `CC(C)(C)c1ccc(S(=O)(=O)Nc2ccc3c(c2)CN(C2CCC(=O)NC2=O)C3=O)cc1` (stereo not drawn) [Compound 46, 4-(tert-butyl)-N-(2-(2,6-dioxopiperidin-3-yl)-1-oxoisoindolin-5-yl)benzenesulfonamide], the IC50 is less than 1 µM. The result for `Cc1cc(S(=O)(=O)Nc2ccc3c(c2)C(=O)N(C2CCC(=O)NC2=O)C3=O)c(C)o1` (stereo not drawn) [Compound 84, N-(2-(2,6-dioxopiperidin-3-yl)-1,3-dioxoisoindolin-5-yl)-2,5-dimethylfuran-3-sulfonamide] reads less than 1 µM; that for `O=C1CCC(N2C(=O)c3ccc(NS(=O)(=O)Cc4ccc(Cl)cc4)cc3C2=O)C(=O)N1` (stereo not drawn) [Compound 57, 1-(4-chlorophenyl)-N-(2-(2,6-dioxopiperidin-3-yl)-1,3-dioxoisoindolin-5-yi)methanesulfonamide], less than 1 µM. In the case of `COc1ccc(S(=O)(=O)Nc2ccc3c(c2)CN(C2CCC(=O)NC2=O)C3=O)cc1` (stereo not drawn) [Compound 40, N-(2-(2,6-dioxopiperidin-3-yl)-1-oxoisoindolin-5-yl)-4-methoxybenzenesulfonamide], the IC50 was less than 1 µM. The result for `Cc1ccc(F)c(S(=O)(=O)Nc2ccc3c(c2)CN(C2CCC(=O)NC2=O)C3=O)c1` (stereo not drawn) [Compound 53] reads less than 1 µM; that for `COc1cccc(S(=O)(=O)Nc2ccc3c(c2)C(=O)N(C2CCC(=O)NC2=O)C3)c1` (stereo not drawn) [Compound 29, N-(2-(2,6-dioxopiperidin-3-yl)-3-oxoisoindolin-5-yl)-3-methoxybenzenesulfonamide], less than 1 µM.

Turning to `O=C1CCC(N2C(=O)c3ccc(NS(=O)(=O)c4ccc5ncsc5c4)cc3C2=O)C(=O)N1` (stereo not drawn) [Compound 86, N-(2-(2,6-dioxopiperidin-3-yl)-1,3-dioxoisoindolin-5-yl)benzo[d]thiazole-6-sulfonamide], the IC50 is less than 1 µM.

For the compound `Cc1cccc(S(=O)(=O)Nc2ccc3c(c2)C(=O)N(C2CCC(=O)NC2=O)C3=O)c1` (stereo not drawn) [Compound 19, N-(2-(2,6-dioxopiperidin-3-yl)-1,3-dioxoisoindolin-5-yl)-3-methylbenzenesulfonamide], the IC50 was less than 1 µM. Consider `O=C1CCC(N2C(=O)c3ccc(NS(=O)(=O)c4ccccc4Br)cc3C2=O)C(=O)N1` (stereo not drawn) [Compound 65, 2-bromo-N-(2-(2,6-dioxopiperidin-3-yl)-1,3-dioxoisoindolin-5-yl)benzenesulfonamide], for which the IC50 was less than 1 µM. As to `O=C1CCC(N2Cc3ccc(NS(=O)(=O)c4cccc(OC(F)(F)F)c4)cc3C2=O)C(=O)N1` (stereo not drawn) [Compound 27, N-(2-(2,6-dioxopiperidin-3-yl)-3-oxoisoindolin-5-yl)-3-(trifluoromethoxy)benzenesulfonamide], the IC50 is less than 1 µM. In the case of `CC(=O)Nc1ccc(S(=O)(=O)Nc2ccc3c(c2)C(=O)N(C2CCC(=O)NC2=O)C3=O)cc1` (stereo not drawn) [Compound 13, N-(4-(N-(2-(2,6-dioxopiperidin-3-yl)-1,3-dioxoisoindolin-5-yl)sulfamoyl)phenyl)acetamide] it was less than 1 µM. Consider `Cc1ccc(S(=O)(=O)Nc2ccc3c(c2)C(=O)N(C2CCC(=O)NC2=O)C3)cc1Cl` (stereo not drawn) [Compound 33, 3-chloro-N-(2-(2,6-dioxopiperidin-3-yl)-3-oxoisoindolin-5-yl)-4-methylbenzenesulfonamide], for which the IC50 was less than 1 µM.

Regarding `O=C1CCC(N2C(=O)c3ccc(NS(=O)(=O)c4ccc(F)c(F)c4)cc3C2=O)C(=O)N1` (stereo not drawn) [Compound 11, N-(2-(2,6-dioxopiperidin-3-yl)-1,3-dioxoisoindolin-5-yl)-3,4-difluorobenzenesulfonamide], the IC50 was less than 1 µM. For `Cc1cc(C)c(S(=O)(=O)Nc2ccc3c(c2)C(=O)N(C2CCC(=O)NC2=O)C3=O)c(C)c1` (stereo not drawn) [Compound 68, N-(2-(2,6-dioxopiperidin-3-yl)-1,3-dioxoisoindolin-5-yl)-2,4,6-trimethylbenzenesulfonamide], the IC50 is less than 1 µM.

Take `Cc1c(Cl)cccc1S(=O)(=O)Nc1ccc2c(c1)CN(C1CCC(=O)NC1=O)C2=O` (stereo not drawn) [Compound 55, 3-chloro-N-(2-(2,6-dioxopiperidin-3-yl)-1-oxoisoindolin-5-yl)-2-methylbenzenesulfonamide]: the IC50 was less than 1 µM. In the case of `O=C1CCC(N2C(=O)c3ccc(NS(=O)(=O)c4ccc5c(c4)OCCO5)cc3C2=O)C(=O)N1` (stereo not drawn) [Compound 59, N-(2-(2,6-dioxopiperidin-3-yl)-1,3-dioxoisoindolin-5-yl)-2,3-dihydrobenzo[b][1,4]dioxine-6-sulfonamide] it was less than 1 µM; in that of `CC(C)(C)c1ccc(S(=O)(=O)Nc2ccc3c(c2)C(=O)N(C2CCC(=O)NC2=O)C3=O)cc1` (stereo not drawn) [Compound 3, 4-(tert-butyl)-N-(2-(2,6-dioxopiperidin-3-yl)-1,3-dioxoisoindolin-5-yl)benzenesulfonamide], less than 1 µM; in that of `O=C1CCC(N2C(=O)c3ccc(NS(=O)(=O)c4ccc(F)cc4F)cc3C2=O)C(=O)N1` (stereo not drawn) [Compound 74, N-(2-(2,6-dioxopiperidin-3-yl)-1,3-dioxoisoindolin-5-yl)-2,4-difluorobenzenefylfonamide], 1 to 10 µM. For the compound `O=C1CCC(N2C(=O)c3ccc(NS(=O)(=O)c4cccnc4)cc3C2=O)C(=O)N1` (stereo not drawn) [Compound 85, N-(2-(2,6-dioxopiperidin-3-yl)-1,3-dioxoisoindolin-5-yl)pyridine-3-sulfonamide], the IC50 is 1 to 10 µM.

Regarding `COc1ccc(S(=O)(=O)Nc2ccc3c(c2)C(=O)N(C2CCC(=O)NC2=O)C3)cc1` (stereo not drawn) [Compound 24, N-(2-(2,6-dioxopiperidin-3-yl)-3-oxoisoindolin-5-yl)-4-methoxybenzenesulfonamide], the IC50 lay in the range of 1 to 10 µM.
